Experiment: xn = mol fraction of the nth substance listed
Details: 101 kPa, Liquid; for speed of sound: Linear variable-path acoustic interferometer; for mass density: Vibrating tube method

NC1CCCCC1 [cyclohexylamine] + c1ccccc1
Details | mass density, 293.15 K [kg/m3] | mass density, 298.15 K [kg/m3] | mass density, 303.15 K [kg/m3] | speed of sound, 293.15 K [m/s] | speed of sound, 298.15 K [m/s] | speed of sound, 303.15 K [m/s] | speed of sound, 308.15 K [m/s]
x1 = 0.0621 | 877.45 | 872.22 | 866.94 | 1328 | 1304.7 | 1281.5 | 1258.4
x1 = 0.0938 | 876.73 | 871.52 | 866.31 | 1331 | 1307.7 | 1284.3 | 1261.5
x1 = 0.1434 | 875.68 | 870.56 | 865.4 | 1335.6 | 1312.3 | 1289.2 | 1266.2
x1 = 0.1546 | 875.47 | 870.34 | 865.2 | 1336.6 | 1313.4 | 1290.3 | 1267.5
x1 = 0.2031 | 874.52 | 869.46 | 864.38 | 1341.3 | 1318.1 | 1295.1 | 1272.5
x1 = 0.2475 | 873.73 | 868.71 | 863.69 | 1345.8 | 1322.7 | 1299.7 | 1277.2
x1 = 0.2972 | 872.9 | 867.95 | 862.98 | 1350.9 | 1327.9 | 1305.2 | 1282.6
x1 = 0.3472 | 872.15 | 867.25 | 862.36 | 1356.1 | 1333.3 | 1310.6 | 1288.1
x1 = 0.3945 | 871.5 | 866.64 | 861.76 | 1361.2 | 1338.4 | 1315.6 | 1293.2
x1 = 0.4786 | 870.45 | 865.69 | 860.88 | 1370.2 | 1347.5 | 1325 | 1302.7
x1 = 0.4948 | 870.28 | 865.5 | 860.72 | 1372.1 | 1349.2 | 1326.9 | 1304.6
x1 = 0.5013 | 870.2 | 865.45 | 860.67 | 1372.6 | 1349.9 | 1327.4 | 1305.1
x1 = 0.5389 | 869.83 | 865.08 | 860.32 | 1376.9 | 1354.3 | 1331.8 | 1309.4
x1 = 0.5396 | 869.83 | 865.08 | 860.32 | 1377 | 1354.4 | 1331.9 | 1309.5
x1 = 0.5419 | 869.8 | 865.06 | 860.3 | 1377.1 | 1354.6 | 1332.1 | 1309.8
x1 = 0.5927 | 869.3 | 864.62 | 859.9 | 1382.8 | 1360.2 | 1337.9 | 1315.5
x1 = 0.6428 | 868.89 | 864.23 | 859.54 | 1388.4 | 1365.8 | 1343.5 | 1321.3
x1 = 0.6927 | 868.55 | 863.88 | 859.24 | 1394.2 | 1371.8 | 1349.5 | 1327.3
x1 = 0.7465 | 868.2 | 863.59 | 858.96 | 1400.3 | 1378 | 1355.6 | 1333.5
x1 = 0.7962 | 867.93 | 863.33 | 858.72 | 1405.9 | 1383.7 | 1361.5 | 1339.7
x1 = 0.8474 | 867.74 | 863.17 | 858.58 | 1411.9 | 1389.9 | 1367.9 | 1345.9
x1 = 0.897 | 867.61 | 863.04 | 858.47 | 1418 | 1396 | 1374.1 | 1352.2
x1 = 0.9485 | 867.49 | 862.94 | 858.38 | 1424.2 | 1402.4 | 1380.5 | 1359
x1 = 1 | 867.39 | 862.85 | 858.31 | 1430.5 | 1408.8 | 1387.3 | 1366

Reference: the NIST ThermoML archive (doi:10.1016/j.tca.2012.08.011)
